From ChEMBL document CHEMBL3217548, “Biological activity and DNA binding studies of 2-substituted benzimidazo[1,2-a]quinolines bearing different amino side chains” (Medchemcomm, 2013)
Active and inactive are the calls of the source. The calls are words filed in the database; no cut-off is given here.

Columns and labels:
Calf thymus DNA [1] = assay: Binding affinity to calf thymus DNA assessed as DNA intercalation at 1 to 50 uM by circular dichroism analysis; format: nucleic-acid assay; conditions: Bos taurus
Homo sapiens = organism: Homo sapiens; assay: Inhibition of human DNA topoisomerase 2 assessed as inhibition of DNA cleavage
Escherichia coli [2] = assay: Binding affinity to Escherichia coli pUC19 plasmid assessed as nicked DNA at 5 to 50 uM by ethidium bromide staining-based agarose gel electrophoresis
Calf thymus DNA [3] = assay: Binding affinity to calf thymus DNA assessed as change in melting temperature at 0.5 drug/DNA ratio by spectrophotometry; format: nucleic-acid assay; conditions: Bos taurus
MCF7 = assay: Cytotoxicity against human MCF7 cells after 72 hrs by MTT assay; format: functional, cell-based; conditions: MCF7, 72 h
[4] = target: T1, DNA topoisomerase 1 (Homo sapiens) (UniProt P11387); assay: Inhibition of human DNA topoisomerase 1 assessed as inhibition of DNA cleavage
T1 sequence (whole entry): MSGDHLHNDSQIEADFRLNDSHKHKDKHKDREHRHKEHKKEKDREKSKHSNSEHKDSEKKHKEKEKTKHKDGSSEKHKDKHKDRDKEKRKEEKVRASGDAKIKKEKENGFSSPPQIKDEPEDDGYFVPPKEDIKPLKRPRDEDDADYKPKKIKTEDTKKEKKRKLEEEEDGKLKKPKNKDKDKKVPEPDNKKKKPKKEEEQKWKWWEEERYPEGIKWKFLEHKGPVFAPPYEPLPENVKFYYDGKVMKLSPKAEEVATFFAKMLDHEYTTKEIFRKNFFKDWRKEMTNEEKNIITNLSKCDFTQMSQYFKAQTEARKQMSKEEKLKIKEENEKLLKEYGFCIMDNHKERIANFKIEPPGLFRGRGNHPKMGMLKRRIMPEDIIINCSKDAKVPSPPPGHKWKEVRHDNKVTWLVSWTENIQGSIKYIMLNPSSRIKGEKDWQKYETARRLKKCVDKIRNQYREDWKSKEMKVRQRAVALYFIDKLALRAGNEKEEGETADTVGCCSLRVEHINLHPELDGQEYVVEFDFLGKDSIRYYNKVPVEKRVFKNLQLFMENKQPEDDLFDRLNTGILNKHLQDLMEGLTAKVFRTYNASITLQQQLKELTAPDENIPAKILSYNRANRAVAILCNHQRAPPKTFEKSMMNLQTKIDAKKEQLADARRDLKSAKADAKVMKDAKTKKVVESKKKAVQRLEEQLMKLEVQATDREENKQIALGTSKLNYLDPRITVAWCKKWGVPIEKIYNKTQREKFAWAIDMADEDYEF

HCT-116 [5] = assay: Cytotoxicity against human HCT116 cells after 72 hrs by MTT assay; format: functional, cell-based; conditions: HCT-116, 72 h
[6] = Cytotoxicity against human H460 cells after 72 hrs by MTT assay; format: functional, cell-based; conditions: NCI-H460, 72 h
Nucleic Acid = assay: DNA intercalating activity at Escherichia coli pUC19 plasmid assessed as effect on global structure of DNA helix at 5 to 50 uM incubated for 45 mins prior to topoisomerase1 addition by agarose gel electrophoresis; format: nucleic-acid assay
DNA = assay: Induction of DNA damage in plasmid DNA in E. coli S30 cell-free system assessed as inhibition of EGFP translation at 50 uM after 1 hr by fluorescence assay
[7] = Binding affinity to DNA (unknown origin) at 1 to 10 uM after 15 mins by DNA footprinting assay
H460 = assay: Binding affinity to chromosomal DNA in human H460 cells at 10 uM after 2 hrs by confocal laser scanning microscopy; format: cell-based
HCT-116 [8] = assay: Cell cycle arrest in human HCT116 cells assessed as accumulation at subG1 phase at 0.1 uM after 48 hrs by propidium iodide staining-based FACS analysis (reference value: 5 +/- 2 %); format: functional
HCT-116 [9] = assay: Cell cycle arrest in human HCT116 cells assessed as accumulation at subG1 phase at 5 uM after 24 hrs by propidium iodide staining-based FACS analysis; format: functional
HCT-116 [10] = assay: Cell cycle arrest in human HCT116 cells assessed as accumulation at subG1 phase at 1 uM after 24 hrs by propidium iodide staining-based FACS analysis (reference value: 2 +/- 0.1 %); format: functional
HCT-116 [11] = assay: Cell cycle arrest in human HCT116 cells assessed as accumulation at subG1 phase after 24 hrs by propidium iodide staining-based FACS analysis; format: functional
HCT-116 [12] = assay: Cell cycle arrest in human HCT116 cells assessed as accumulation at G2/M phase at 0.1 uM after 24 hrs by propidium iodide staining-based FACS analysis (reference value: 29 +/- 8 %); format: functional
Escherichia coli [13] = assay: Binding affinity to Escherichia coli pUC19 plasmid assessed as nicked DNA at 0.1 to 5 uM by ethidium bromide staining-based agarose gel electrophoresis
HCT-116 [14] = assay: Cell cycle arrest in human HCT116 cells assessed as accumulation at G2/M phase at 0.1 uM after 48 hrs by propidium iodide staining-based FACS analysis (reference value: 28 +/- 3 %); format: functional
HCT-116 [15] = assay: Cell cycle arrest in human HCT116 cells assessed as accumulation at S phase at 0.1 uM after 24 hrs by propidium iodide staining-based FACS analysis (reference value: 48 +/- 6 %); format: functional
Calf thymus DNA [16] = assay: Binding affinity to calf thymus DNA assessed as bathochromic shift at 20 uM by UV/visible spectrophotometry; format: nucleic-acid assay; conditions: Bos taurus
HCT-116 [17] = assay: Cell cycle arrest in human HCT116 cells assessed as accumulation at subG1 phase at 0.1 uM after 24 hrs by propidium iodide staining-based FACS analysis (reference value: 2 +/- 0.1 %); format: functional
[18] = Drug uptake in human H460 cell nucleus at 10 uM after 2 hrs by confocal laser scanning microscopy; format: ADME, cell-based; conditions: h460, 2 h
HCT-116 [19] = assay: Cell cycle arrest in human HCT116 cells assessed as accumulation at G1 phase at 0.1 uM after 48 hrs by propidium iodide staining-based FACS analysis (reference value: 60 +/- 2 %); format: functional
[20] = Drug uptake in human H460 cell endosome at 10 uM after 2 hrs by confocal laser scanning microscopy; format: ADME, cell-based; conditions: h460, 2 h
HCT-116 [21] = assay: Cell cycle arrest in human HCT116 cells assessed as accumulation at G2/M phase at 1 uM after 48 hrs by propidium iodide staining-based FACS analysis (reference value: 28 +/- 3 %); format: functional
[22] = Drug uptake in human H460 cell cytoplasm at 10 uM after 2 hrs by fluorescence microscopy; format: ADME, cell-based; conditions: h460, 2 h
HCT-116 [23] = assay: Cell cycle arrest in human HCT116 cells assessed as accumulation at G2/M phase at 1 uM after 24 hrs by propidium iodide staining-based FACS analysis (reference value: 29 +/- 8 %); format: functional
HCT-116 [24] = assay: Cell cycle arrest in human HCT116 cells assessed as accumulation at subG1 phase at 1 uM after 48 hrs by propidium iodide staining-based FACS analysis (reference value: 5 +/- 2 %); format: functional
HCT-116 [25] = assay: Cell cycle arrest in human HCT116 cells assessed as accumulation at S phase at 1 uM after 48 hrs by propidium iodide staining-based FACS analysis (reference value: 12+/- 5 %); format: functional
HCT-116 [26] = assay: Cell cycle arrest in human HCT116 cells assessed as accumulation at S phase at 0.1 uM after 48 hrs by propidium iodide staining-based FACS analysis (reference value: 12+/- 5 %); format: functional
Calf thymus DNA [27] = assay: Binding affinity to calf thymus DNA assessed as hypochromic shift at 20 uM by UV/visible spectrophotometry; format: nucleic-acid assay; conditions: Bos taurus
HCT-116 [28] = assay: Cell cycle arrest in human HCT116 cells assessed as accumulation at S phase at 1 uM after 24 hrs by propidium iodide staining-based FACS analysis (reference value: 48 +/- 6 %); format: functional
HCT-116 [29] = assay: Cell cycle arrest in human HCT116 cells assessed as accumulation at G1 phase at 0.1 uM after 24 hrs by propidium iodide staining-based FACS analysis (reference value: 23 +/- 2 %); format: functional
[30] = Drug uptake in human H460 cell lysosome at 10 uM after 2 hrs by confocal laser scanning microscopy; format: ADME, cell-based; conditions: h460, 2 h
[31] = Drug uptake in human H460 cell nucleus at 10 uM after 2 hrs by fluorescence microscopy; format: ADME, cell-based; conditions: h460, 2 h
HCT-116 [32] = assay: Cell cycle arrest in human HCT116 cells assessed as accumulation at G1 phase at 1 uM after 24 hrs by propidium iodide staining-based FACS analysis (reference value: 23 +/- 2 %); format: functional
HCT-116 [33] = assay: Cell cycle arrest in human HCT116 cells assessed as accumulation at G1 phase at 1 uM after 48 hrs by propidium iodide staining-based FACS analysis (reference value: 60 +/- 2 %); format: functional
Escherichia coli [34] = assay: Induction of topoisomerase1-mediated Escherichia coli pUC19 plasmid relaxation at 20 to 50 uM incubated for 45 mins prior to topoisomerase1 addition by agarose gel electrophoresis

## N#Cc1cc2ccc(N3CCCCC3)cc2n2c1nc1ccccc12
Calf thymus DNA [1]
  Activity: inactive
Homo sapiens
  Activity: inactive
Escherichia coli [2]
  Activity: Active
Calf thymus DNA [3]
  ΔTm: 0 °C
MCF7
  IC50: 2 µM
[4]
  Activity: inactive
HCT-116 [5]
  IC50: 8 µM
[6]
  IC50: 5 µM
Nucleic Acid
  Activity: inactive

## CCN(CC)c1ccc2cc(C#N)c3nc4ccccc4n3c2c1
MCF7
  IC50: 2 µM
HCT-116 [5]
  IC50: 2 µM
[6]
  IC50: 1.6 µM

## COc1cccc2c1C(=O)c1c(O)c3c(c(O)c1C2=O)C[C@@](O)(C(=O)CO)C[C@@H]3O[C@H]1C[C@H](N)[C@H](O)[C@H](C)O1 [DOXORUBICIN]
DNA
  inhibition at 50 µM: 79%

## CN(C)CCCNc1ccc2cc(C#N)c3nc4ccccc4n3c2c1
[7]
  Activity: Active
Calf thymus DNA [1]
  Activity: Active
Homo sapiens
  Activity: inactive
H460
  Activity: Active
HCT-116 [8]
  Activity: 4%
HCT-116 [9]
  Activity: 40%
HCT-116 [10]
  Activity: 5%
HCT-116 [11]
  Activity: Dose-dependent effect
Calf thymus DNA [3]
  ΔTm: 19.2 °C
HCT-116 [12]
  Activity: 40%
MCF7
  IC50: 0.4 µM
Escherichia coli [13]
  Activity: Active
HCT-116 [14]
  Activity: 17%
HCT-116 [15]
  Activity: 47%
Calf thymus DNA [16]
  Activity: Active
HCT-116 [17]
  Activity: 6%
[18]
  Drug uptake: Active
HCT-116 [19]
  Activity: 60%
[4]
  Activity: inactive
HCT-116 [5]
  IC50: 0.23 µM
[20]
  Drug uptake: Active
[6]
  IC50: 0.3 µM
HCT-116 [21]
  Activity: 58%
DNA
  inhibition at 50 µM: 72%
[22]
  Drug uptake: Active
HCT-116 [23]
  Activity: 65%
HCT-116 [24]
  Activity: 8%
HCT-116 [25]
  Activity: 1%
HCT-116 [26]
  Activity: 23%
Calf thymus DNA [27]
  Activity: Active
HCT-116 [28]
  Activity: 13%
HCT-116 [29]
  Activity: 13%
[30]
  Drug uptake: Active
[31]
  Drug uptake: Active
HCT-116 [32]
  Activity: 22%
HCT-116 [33]
  Activity: 41%

## O=C(O)CCCc1ccc(N(CCCl)CCCl)cc1 [CHLORAMBUCIL]
DNA
  inhibition at 50 µM: 45%

## N#Cc1cc2ccc(N3CCOCC3)cc2n2c1nc1ccccc12
Calf thymus DNA [1]
  Activity: Active
Homo sapiens
  Activity: inactive
Escherichia coli [2]
  Activity: Active
Calf thymus DNA [3]
  ΔTm: 0 °C
MCF7
  IC50: 0.2 µM
Escherichia coli [34]
  Activity: inactive
[4]
  Activity: inactive
HCT-116 [5]
  IC50: 0.3 µM
[6]
  IC50: 0.3 µM

## CNc1ccc2cc(C#N)c3nc4ccccc4n3c2c1
MCF7
  IC50: 0.2 µM
HCT-116 [5]
  IC50: > 10 µM
[6]
  IC50: > 10 µM
